Laboratory results from US20240374730A1, “PHOTOACTIVATABLE PRODRUG NANOPARTICLES FOR COMBINED ANTI-ANGIOGENESIS AND PHOTODYNAMIC THERAPY” (The University of Hong Kong, priority 2021, published 2024).
pIC50: −log10 of the molar value.

Assays:
[1] = system: VEGF-stimulated human umbilical vein endothelial cells (HUVECs); experiment: MTT cell viability of VEGF-stimulated HUVECs (dasatinib vs Di-DAS); format: cell-based; conditions: HUVEC, 20 ng/mL VEGF165, 48 h, read-out: 50% inhibition concentration (IC50)
Description: . Cells were incubated with 20 ng/mL VEGF165 and co-treated with dasatinib or Di-DAS at various concentrations for 48 h. FIG. 4B VEGF-stimulated HUVEC tube formation assay of Di-DAS-VER. […] FIG. 4C Quantitative HUVEC cell viability of Di-DAS-VER by MTT assay. […] MTT assay was performed at 24 h after treatment. […] . DAS: dasatinib; VER: verteporfin.
We tested the in vitro anti-angiogenic activity of DAS and Di-DAS in VEGF-stimulated human umbilical vein endothelial cells (HUVECs). […] . To assess therapeutic efficacy of combined anti-VEGF and PDT treatment, thiazolyl blue tetrazolium bromide (MTT) assay was conducted for measuring VEGF-stimulated HUVEC cell viability.

[2] = system: VEGF-stimulated HUVECs; experiment: HUVEC scratch-wound healing assay; conditions: DAS group, irradiation not stated, 20 h
[3] = system: VEGF-induced HUVEC tube formation; experiment: VEGF-induced HUVEC tube formation assay; format: cell-based, human; conditions: DAS equivalent dose 0.05 μM, 20 ng/mL VEGF165, 4 h

Row | Molecule | pIC50 [1] | scratch wound recovery [2] | inhibition of VEGF-induced HUVEC differentiation and formation of vessel-like tubes [3]
1 | Cc1nc(Nc2ncc(C(=O)Nc3c(C)cccc3Cl)s2)cc(N2CCN(CCO)CC2)n1 [DAS, dasatinib] | 6.04 | 11.35% | 
2 | verteporfin |  |  | could not inhibit
